{"source": "patent US20220227859A1", "about": "“METHOD TO TREAT TYPE 2 INFLAMMATION OR MAST-CELL DEPENDENT DISEASE” (INSERM (INSTITUT NATIONAL DE LA SANTÉ ET DE LA RECHERCHE …, priority 2019, published 2022)", "key": {"TRPV1+ nociceptors [1]": {"system": "TRPV1+ nociceptors", "conditions": "mouse, in vivo"}, "skin MCs": {"system": "skin MCs", "assay": "In vivo two-photon microscopy of Pirt-GCaMP3 mice: degranulation of Av.SRho+ MCs", "set-up": "species or system mouse", "conditions": "for degranulation of Av.SRho+ MCs: mouse, in vivo"}, "TRPV1+ nociceptors [2]": {"system": "TRPV1+ nociceptors", "conditions": "mouse, in vivo", "remark": "listed apart in the source"}, "DRG neurons": {"system": "DRG neurons", "format": "cell-based, mouse"}}, "data": [{"compound": "C=C(C)[C@]12C[C@@H](C)[C@@]34O[C@](Cc5ccccc5)(O[C@@H]1[C@@H]3C=C(COC(=O)Cc1ccc(O)c(OC)c1)C[C@]1(O)C(=O)C(C)=C[C@@H]41)O2", "note": "[RTX, resiniferatoxin]", "values": [{"measurement": "expression of the stress marker K-6", "setting": "TRPV1+ nociceptors [1]", "value": "decreased"}, {"measurement": "filaggrin organization", "setting": "TRPV1+ nociceptors [1]", "value": "restored"}, {"measurement": "skin lesions development and tested pathological features", "setting": "TRPV1+ nociceptors [1]", "value": "strong reduction"}]}, {"compound": "COc1cc(CNC(=O)CCCC/C=C/C(C)C)ccc1O", "note": "[capsaicin]", "values": [{"measurement": "time by which increase in GCaMP3 fluorescence preceded degranulation of cognate Av.SRho+ MCs", "setting": "skin MCs; i.d. 1 μM, video recorded for 60 minutes", "value": "10 to 15", "unit": "min"}, {"measurement": "degranulation of Av.SRho+ MCs", "setting": "skin MCs", "value": "most of Av.SRho^+ MCs exhibited a degranulated phenotype"}, {"measurement": "GCaMP3 fluorescence levels in skin neurons", "setting": "TRPV1+ nociceptors [2]", "value": "strong increase"}]}, {"compound": "Staphylococcal enterotoxin B [SEB]", "values": [{"measurement": "degranulation of Av.SRho+ MCs", "setting": "skin MCs", "value": "presence of adjacent degranulated Av.SRho^+ MCs"}, {"measurement": "intracellular calcium levels in DRG neurons", "setting": "DRG neurons", "value": "weak"}, {"measurement": "GCaMP3 fluorescence levels in skin neurons", "setting": "TRPV1+ nociceptors [2]", "value": "significant increase"}]}]}
